From publication PMC7904550, “Application of grouping and read-across for the evaluation of parabens of different chain lengths with a particular focus on endocrine properties” (Archives of Toxicology, 2021)
Where two headings read alike, the source gives them in different places. Marks after values point to notes of the source that are not given here.

Experiments:
[1] = tested on: human oestrogen receptor α; design: method as in Watanabe et al. 2013; conditions: ref Watanabe et al. 2013, cited from earlier work
in vivo = conditions: for concentration at 1 h / Tmax / AUC(0-t) / Cmax: Wistar, rat, in vivo; for Tmax / AUC(0-t) / Cmax: po; for AUC(0-t) / Cmax / AUC0-1 h/AUC0–t / C1h/Cmax / Clast / tlast: parent compound
Description: These studies were conducted similarly to OECD TG 417 applying 500 and 1000 mg/kg body weight (bw) test item via oral gavage to 10 males and 10 females per dose group. Focus of the toxicokinetic evaluation was on the measurement of the serum concentrations of the parent compounds and their (common) major metabolite p-hydroxybenzoic acid by […] in order to assess the systemic uptake and elimination of the parent compounds and this major metabolite [see also ECHA ([2017a])]. The limit of quantification was determined as 10 ng/mL for all parabens, and as 130 ng/mL for p-hydroxybenzoic acid. […] On account of these major aims, investigations of the faeces and urine were not included in the toxicokinetics screening studies.

[2] = ref Yalkowsky and He (2003); cited from earlier work
Wistar rats = tested on: Wistar rats; design: method as in Zhang et al. 2014; conditions: 400 and 1000 mg/kg bw/day oral gavage; ref Zhang et al. 2014; cited from earlier work
male rats = tested on: male rats; design: method as in Hoberman et al. 2008; conditions: up to 10,000 ppm, corresponding to 1088 ± 68 mg/kg bw/day; ref Hoberman et al. 2008; cited from earlier work
rats [3] = conditions: acute oral, ref ECHA dissemination portal, cited from earlier work
rats [4] = conditions: cited from earlier work
bacteria = conditions: ref ECHA dissemination portal, cited from earlier work
rats [5] = conditions: cited from earlier work; remark: listed apart in the source
rabbits = tested on: rabbits; design: method as in ECHA dissemination portal; conditions: acute dermal exposure, ref ECHA dissemination portal; cited from earlier work
rats [6] = conditions: cited from earlier work; remark: listed apart in the source
oestrogen receptors = tested on: oestrogen receptors; design: method as in Byford et al. 2002; conditions: ref Byford et al. 2002; cited from earlier work
rats [7] = conditions: cited from earlier work; remark: listed apart in the source
[8] = Grouping and read-across of NOAEL (ECHA RAAF Scenario 5; analogue approach); conditions: for NOAEL for systemic repeated-dose toxicity and DART: predicted by read-across from the respective paraben (analogue approach)
Description: The strength of evidence for the respective AEs was scored by the assessment options indicated in the RAAF ranging from Score 5 (acceptable with high confidence) to Score 1 (not acceptable) (ECHA [2017b]).

rats [9] = conditions: 5,000, 15,000 and 40,000 ppm in feed, ref Hubbard et al. 2020, cited from earlier work
[10] = design: method as in Hansch et al. (1995); conditions: ref Hansch et al. (1995); cited from earlier work
[11] = ref Dymicky and Huhtanen (1979), cited in CIR (2008); cited from earlier work
[12] = Octanol–water partition coefficient (Log Kow); assay type: physicochemical; conditions: 23 °C, OECD TG 107
Description: (§1) Generally, these parabens have very similar physico-chemical properties.

[13] = Acid dissociation constant (pKa); assay type: physicochemical
Description: as §1

mammalian cells = conditions: OECD 476; ref ECHA dissemination portal; cited from earlier work
[14] = cited from earlier work
[15] = tested on: human oestrogen receptor β; design: method as in Watanabe et al. 2013; conditions: among 12 linear n-alkyl parabens C1 to C12; ref Watanabe et al. 2013; cited from earlier work
[16] = sodium salt, read-across from the respective paraben

## C[C@]12CC[C@@H]3c4ccc(O)cc4CC[C@H]3[C@@H]1CC[C@@H]2O [17β-estradiol, reference compound]
[1]; receptor subtype not stated
  Concentration of receptor effects: 2.5 × 10^–12

## CCCCOC(=O)c1ccc(O)cc1 [Butyl paraben, Butyl 4-hydroxybenzoate]
In vivo; female, 500 mg/kg
  concentration at 1 h: 31.5 ng/mL
  Tmax: 4.8 min
  Cmax: 741 ng/mL
In vivo; female, 1000 mg/kg
  concentration at 1 h: 59.1 ng/mL
  Tmax: 4.8 min
  Cmax: 854 ng/mL
In vivo; female, 500 mg/kg, AUC0-1 h
  AUC(0-t): 149 ng·h/mL
In vivo; female, 500 mg/kg, AUC0–t
  AUC(0-t): 336 ng·h/mL
In vivo; female, 1000 mg/kg, AUC0-1 h
  AUC(0-t): 191 ng·h/mL
In vivo; female, 1000 mg/kg, AUC0–t
  AUC(0-t): 404 ng·h/mL
In vivo; male, 500 mg/kg
  concentration at 1 h: 161 ng/mL
  Cmax: 1770 ng/mL
In vivo; male, 1000 mg/kg
  concentration at 1 h: 373 ng/mL
  Cmax: 6520 ng/mL
In vivo; male, 500 mg/kg, AUC0-1 h
  AUC(0-t): 300 ng·h/mL
In vivo; male, 500 mg/kg, AUC0–t
  AUC(0-t): 705 ng·h/mL
In vivo; male, 1000 mg/kg, AUC0-1 h
  AUC(0-t): 860 ng·h/mL
In vivo; male, 1000 mg/kg, AUC0–t
  AUC(0-t): 1580 ng·h/mL
In vivo; male, 1000 mg/kg, males
  Cmax: 7000 ng/mL
In vivo; 500 mg/kg, female
  AUC0-1 h/AUC0–t: 44%
  C1h/Cmax: 4.3%
  Clast: 23.9 ng/mL
  tlast: 8.0 h
In vivo; 500 mg/kg, male
  AUC0-1 h/AUC0–t: 43%
  C1h/Cmax: 9.1%
  Clast: 49.2 ng/mL
  tlast: 8.0 h
In vivo; 1000 mg/kg, female
  AUC0-1 h/AUC0–t: 47%
  C1h/Cmax: 6.9%
  Clast: 23.6 ng/mL
  tlast: 8.0 h
In vivo; 1000 mg/kg, male
  AUC0-1 h/AUC0–t: 54%
  C1h/Cmax: 5.7%
  Clast: 18.4 ng/mL
  tlast: 8.0 h
[2]
  Water solubility: Insoluble [e]
Wistar rats
  Epididymal sperm count and daily sperm production: dose-dependently reduced epididymal sperm count and daily sperm production
Male rats
  Effects in male rats: no effects
Rats [3]; OECD 423, read-across from iso-butyl paraben
  LD50: > 2000 (read across; OECD 423; 2018) [a, b] mg/kg bw
Rats [4]; read-across from iso-butyl paraben, OECD 439, ref ECHA dissemination portal
  Skin irritation/skin corrosion classification: Irritating (read-across; OECD 439; 2016) [a]
bacteria; read-across from iso-butyl paraben, OECD 471
  Mutagenicity in bacteria classification: Not mutagenic (read-across; OECD 471; 2016) [a]
Rats [5]; read-across from iso-butyl paraben, OECD 429, ref ECHA dissemination portal
  Skin sensitisation classification: Not sensitising (read-across; OECD 429; 2016) [a]
rabbits
  NOAEL: [b] A further acute toxicity study was conducted as dermal exposure study in rabbits yielding NOAEL > 2000 mg/kg bw
Rats [6]; derived from Zhang et al. (2014), ref CIR 2019
  NOAEL, point-of-departure: 160 mg/kg bw/day
Rats [6]; juvenile rats, subcutaneous, 17 days (PND 2-18), single dose tested (Fisher et al. 1999), ref SCCS 2010
  NOEL: 2 mg/kg bw/day
Oestrogen receptors
  Rank of oestrogen receptor activation among shorter-chained parabens: the most activation
Rats [7]; read-across from iso-butyl paraben, OECD 437, ref ECHA dissemination portal
  Eye irritation/eye corrosion classification: Ser. eye damage (read-across; OECD 437; 2016) [a]
[8]; extrapolation, appears justifiable
  NOAEL for repeated-dose toxicity and DART: 1000 mg/kg bw/day
Rats [9]; parent, first, second generation
  Adverse alterations of fertility, fecundity, pubertal attainment or any reproductive parameters: no association
Rats [9]
  Liver findings: exposure-dependent increases in liver weight and incidences of non-neoplastic liver lesions
[10]
  Log Kow: 3.54 [d]
[11]
  pKa: 8.37 [c]

## CCOC(=O)c1ccc([O-])cc1.[Na+] [Na-ethyl paraben, Sodium ethyl 4-HBA]
Rats [3]; rats, OECD 401
  LD50: 3100 OECD 401; 1982) mg/kg bw
Rats [4]; rat, in vivo
  Skin irritation/skin corrosion classification: Not irritating (OECD 404; 1981)
[12]; pH 10.4
  Log Kow: -0.14 at 23 °C, pH 10.4 (OECD TG 107)
bacteria; [16]
  Mutagenicity in bacteria classification: Not mutagenic (read-across from ethyl paraben)
Rats [5]; rat, in vivo
  Skin sensitisation classification: Not sensitising (read-across from ethyl paraben)
Rats [7]; rat, in vivo
  Eye irritation/eye corrosion classification: Irritating (OECD 405; 1982)
[8]
  NOAEL for systemic repeated-dose toxicity and DART: 1000 mg/kg bw/day

## COC(=O)c1ccc([O-])cc1.[Na+] [Na-methyl paraben, Sodium methyl 4-HBA]
bacteria; OECD 471
  Mutagenicity in bacteria classification: Not mutagenic [a] (OECD 471; 2012)
[13]
  pKa: 8.4 (OECD TG 112)
Mammalian cells
  Mutagenicity in mammalian cells classification: Not mutagenic [a] (OECD 476; 2012)

## CCCOC(=O)c1ccc([O-])cc1.[Na+] [Na-propyl paraben, Sodium propyl 4-HBA]
Rats [3]; rats, OECD 401
  LD50: > 5000 OECD 401; 1982) mg/kg bw
Rats [4]; rat, in vivo
  Skin irritation/skin corrosion classification: Not irritating (OECD 404; 1982)
[12]; pH 10.8
  Log Kow: 0.27 at 23 °C, pH 10.8 (OECD TG 107)
bacteria; [16]
  Mutagenicity in bacteria classification: Not mutagenic (read-across from propyl paraben)
Rats [7]; rat, in vivo
  Eye irritation/eye corrosion classification: Serious eye damage (OECD 405; 1983)
[8]
  NOAEL for systemic repeated-dose toxicity and DART: 1000 mg/kg bw/day

## CCCCCCCOC(=O)c1ccc(O)cc1 [heptyl paraben]
[1]; among 12 linear n-alkyl parabens C1 to C12
  Concentration of highest potency in activating the receptor: 10^–7 M

## O=C(O)c1ccc(O)cc1 [p-hydroxybenzoic acid]
[14]; ref ECHA registration dossier 15944
  Systemic toxicity and DART: no systemic toxicity and no DART
[14]; substance evaluation, REACH Article 48, ref ECHA 2014
  Endocrine activity: does not exhibit any endocrine activity

## CCCCCOC(=O)c1ccc(O)cc1 [pentyl paraben]
[15]
  Concentration of highest potency in activating the receptor: 10^–8 M
